Test results: ChEMBL document CHEMBL5316327, “Design and Synthesis of Orally Active Quinolyl Pyrazinamides as Sigma 2 Receptor Ligands for the Treatment of Pancreatic Cancer” (J Med Chem, 2023)
Active and inactive are the calls of the source. No cut-off for these calls is given here.

What was measured:
[1] = Cytotoxicity against HPDE cells measured after 72 hrs by MTT assay; type: toxicity, cell-based; conditions: human
HCT-116 [2] = assay: Inhibition of colony formation in human HCT-116 cells at 0.04 to 30 uM pretreated with ammonium tetrathiomolybdate for 4 hrs followed by compound addition and measured after 6 days; type: functional, cell-based; conditions: dose 0.04-30 µM, time 6.0 day
HCT-116 [3] = assay: Synergistic cytotoxicity against human HCT-116 cells at upto 1 uM measured after 6 days in presence of silver acetate by crystal violet staining based analysis; type: functional, cell-based; conditions: time 6.0 day
MIA PaCa-2 [4] = assay: Induction of cell cycle arrest in human MIA PaCa-2 cells assessed as accumulation of cells in G0/G1 phase at 5 uM measured after 24 hrs by propidium iodide staining-based flow cytometric analysis (reference value: 53%); type: functional
MIA PaCa-2 [5] = assay: Additive ferroptosis activity in human MIA-PaCa-2 cells at upto 1 uM measured after 7 days in presence of erastin by crystal violet staining based analysis; type: functional, cell-based; conditions: time 7.0 day
MIA PaCa-2 [6] = assay: Synergistic cytotoxicity against human MIA PaCa-2 cells at upto 1 uM measured after 7 days in presence of ammonium tetrathiomolybdate by crystal violet staining based analysis; type: functional, cell-based; conditions: time 7.0 day
HCT-116 [7] = assay: Induction of cell cycle arrest in human HCT-116 cells assessed as accumulation of cells in G2/M phase at […] measured after 24 hrs by propidium iodide staining-based flow cytometric analysis (reference value: 10%); type: functional; conditions: dose 2.5 µM
MIA PaCa-2 [8] = assay: Synergistic ferroptosis activity in human MIA-PaCa-2 cells at upto 1 uM measured after 7 days in presence of FIN56 by crystal violet staining based analysis; type: functional, cell-based; conditions: time 7.0 day
HCT-116 [9] = assay: Induction of apoptosis in human HCT-116 cells assessed as early apoptotic cells at 1.0 uM measured after 48 hrs by Annexin V-Alexa Fluor 488/propidium iodide staining based flow cytometry (reference value: 2.77%); type: functional
HCT-116 [10] = assay: Induction of cell cycle arrest in human HCT-116 cells assessed as accumulation of cells in G0/G1 phase at 1 uM measured after 24 hrs by propidium iodide staining-based flow cytometric analysis (reference value: 43%); type: functional
MIA PaCa-2 [11] = assay: Synergistic cytotoxicity in human MIA PaCa-2 cells at upto 1 uM measured after 7 days in presence of doxorubicin by crystal violet staining based analysis; type: functional, cell-based; conditions: time 7.0 day
[12] = AUC (0 to infinity) in CD-1 mouse plasma at 20 mg/kg, po; type: ADME, organism-based; parameters: dose 20 mg/kg, route po
HCT-116 [13] = assay: Induction of cell cycle arrest in human HCT-116 cells assessed as accumulation of cells in S phase at 1 uM measured after 24 hrs by propidium iodide staining-based flow cytometric analysis (reference value: 47%); type: functional
[14] = biological target: Sigma non-opioid intracellular receptor 1 (Homo sapiens, UniProt Q99720); assay: Displacement of [3H](+)-pentazocine from human sigma 1 receptor transfected in human HEK293T cells assessed as inhibition constant by radioligand competition binding assay; type: cell-based
Sequence of Sigma non-opioid intracellular receptor 1 (Q99720 whole entry): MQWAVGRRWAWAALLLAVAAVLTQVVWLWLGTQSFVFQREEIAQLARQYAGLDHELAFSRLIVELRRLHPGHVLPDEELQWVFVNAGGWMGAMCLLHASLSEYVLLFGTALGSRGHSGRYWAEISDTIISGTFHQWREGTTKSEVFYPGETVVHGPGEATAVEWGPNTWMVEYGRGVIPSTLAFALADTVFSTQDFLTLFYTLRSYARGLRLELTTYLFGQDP

[15] = biological target: 5-hydroxytryptamine receptor 1B (Homo sapiens, UniProt P28222); assay: Binding affinity to 5-HT1B receptor (unknown origin) assessed as inhibition constant
Sequence of 5-hydroxytryptamine receptor 1B (P28222 whole entry): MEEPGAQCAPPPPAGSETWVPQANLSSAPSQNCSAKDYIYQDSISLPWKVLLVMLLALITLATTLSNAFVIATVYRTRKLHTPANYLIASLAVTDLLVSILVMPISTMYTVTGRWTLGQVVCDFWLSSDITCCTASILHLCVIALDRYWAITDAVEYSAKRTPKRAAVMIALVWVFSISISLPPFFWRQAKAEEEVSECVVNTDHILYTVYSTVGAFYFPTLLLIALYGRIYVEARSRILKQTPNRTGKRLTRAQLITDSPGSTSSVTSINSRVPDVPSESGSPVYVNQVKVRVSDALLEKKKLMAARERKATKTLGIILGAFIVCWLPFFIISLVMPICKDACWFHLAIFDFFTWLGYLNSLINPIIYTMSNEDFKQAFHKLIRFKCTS

MIA PaCa-2 [16] = assay: Upregulation of GRP78 in human MIA PaCa-2 cells at 10 uM measured after 24 hrs by Western blot analysis; type: functional, cell-based
MIA PaCa-2 [17] = assay: Induction of autophagy in human MIA PaCa-2 cells assessed as upregulation of LC-3 level at 1 to 10 uM measured after 24 hrs; type: functional, cell-based; conditions: dose 1-10 µM
[18] = biological target: Sigma intracellular receptor 2 (Homo sapiens, UniProt Q5BJF2); assay: Displacement of [3H][…]ditolylguanidine from human sigma 2 receptor transfected in human HEK293T cells assessed as inhibition constant by radioligand competition binding assay; type: cell-based
Sequence of Sigma intracellular receptor 2 (Q5BJF2 whole entry): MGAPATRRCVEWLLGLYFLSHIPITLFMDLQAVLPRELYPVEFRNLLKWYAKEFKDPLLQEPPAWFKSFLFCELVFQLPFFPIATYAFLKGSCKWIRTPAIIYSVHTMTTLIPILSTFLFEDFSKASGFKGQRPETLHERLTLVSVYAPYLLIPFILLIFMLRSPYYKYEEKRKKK

cells = conditions: Mus musculus, KPC2, 72 h
MIA PaCa-2 [19] = assay: Induction of cell cycle arrest in human MIA PaCa-2 cells assessed as accumulation of cells in G0/G1 phase at […] measured after 24 hrs by propidium iodide staining-based flow cytometric analysis (reference value: 53%); type: functional; conditions: dose 2.5 µM
[20] = Metabolic stability in mouse liver microsomes assessed as half life at 10 uM measured upto 60 mins in presence of NADPH by LC-MS/MS analysis; type: ADME, Microsome; conditions: 1 h
Panc02 [21] = assay: cells; conditions: Mus musculus, Panc02, 72 h
HCT-116 [22] = assay: Induction of apoptosis in human HCT-116 cells assessed as necrotic cells at […] measured after 48 hrs by Annexin V-Alexa Fluor 488/propidium iodide staining based flow cytometry (reference value: 9.06%); type: functional; conditions: dose 2.5 µM
[23] = Half life in CD-1 mouse plasma at 20 mg/kg, po; type: ADME, organism-based
[24] = Toxicity in C57BL/6 mouse assessed as effect on body weight at 60 mg/kg, ip measured upto 28 days; type: organism-based; conditions: in vivo, 672 h, time < 28 day
Panc02 [25] = assay: Antitumor activity against mouse Panc02 cells xenografted in C57BL/6 mouse model assessed as delayed tumor growth at 30 mg/kg, po administered daily for 32 days in presence of copper sulfate by caliper method; type: functional, organism-based; conditions: time 32.0 day
MIA PaCa-2 [26] = assay: Induction of apoptosis in human MIA PaCa-2 cells assessed as early apoptotic cells at […] measured after 48 hrs by Annexin V-Alexa Fluor 488/propidium iodide staining based flow cytometry (reference value: 4.11%); type: functional; conditions: dose 2.5 µM
MIA PaCa-2 [27] = assay: Induction of apoptosis in human MIA PaCa-2 cells assessed as late apoptotic cells at 1.0 uM measured after 48 hrs by Annexin V-Alexa Fluor 488/propidium iodide staining based flow cytometry (reference value: 6.63%); type: functional
MIA PaCa-2 [28] = assay: Induction of cell cycle arrest in human MIA PaCa-2 cells assessed as accumulation of cells in S phase at 1 uM measured after 24 hrs by propidium iodide staining-based flow cytometric analysis (reference value: 31%); type: functional
HCT-116 [29] = assay: Induction of apoptosis in human HCT-116 cells assessed as early apoptotic cells at 10.0 uM measured after 48 hrs by Annexin V-Alexa Fluor 488/propidium iodide staining based flow cytometry (reference value: 2.77%); type: functional
HCT-116 [30] = assay: Induction of apoptosis in human HCT-116 cells assessed as late apoptotic cells at […] measured after 48 hrs by Annexin V-Alexa Fluor 488/propidium iodide staining based flow cytometry (reference value: 8.48%); type: functional; conditions: dose 2.5 µM
HCT-116 [31] = assay: Induction of apoptosis in human HCT-116 cells assessed as viable cells at 10.0 uM measured after 48 hrs by Annexin V-Alexa Fluor 488/propidium iodide staining based flow cytometry (reference value: 79.69%); type: functional; conditions: read-out: Activity
[32] = Cytotoxicity against HFF-1 cells measured after 72 hrs by MTT assay; type: toxicity, cell-based; conditions: human
PANC-1 = assay: Induction of autophagy in human PANC-1 cells assessed as upregulation of LC-3 level at 1 to 10 uM measured after 24 hrs; type: functional, cell-based; conditions: dose 1-10 µM
MIA PaCa-2 [33] = assay: Additive cytotoxicity in human MIA PaCa-2 cells at upto 1 uM measured after 24 hrs in presence of roluperidone; type: functional, cell-based
HCT-116 [34] = assay: Induction of apoptosis in human HCT-116 cells assessed as late apoptotic cells at 10.0 uM measured after 48 hrs by Annexin V-Alexa Fluor 488/propidium iodide staining based flow cytometry (reference value: 8.48%); type: functional

## CCN(CC)CCCC(C)Nc1cnc(C(=O)Nc2ccc(Cl)c3cccnc23)cn1 (stereo unspecified)
[1]
  IC50 at 72 h: 300 nM
HCT-116 [2]
  inhibition: inactive
HCT-116 [3]
  Activity: inactive
MIA PaCa-2 [4]
  Activity: 61%
MIA PaCa-2 [5]
  Activity: Active
MIA PaCa-2 [6]
  Activity: inactive
HCT-116 [7]
  Activity: 19%
MIA PaCa-2 [8]
  Activity: Active
HCT-116 [9]
  Activity: 2.38%
HCT-116 [10]
  Activity: 41%
MIA PaCa-2 [11]
  Activity: inactive
[12]
  AUC(0-inf): 3390 ng·h/mL
HCT-116 [13]
  Activity: 34%
[14]
  Ki: 530 nM
[15]
  Ki: 646 nM
MIA PaCa-2 [16]
  Activity: Active
MIA PaCa-2 [17]
  Activity: Active
[18]
  Ki: 47 nM
cells
  IC50: 2700 nM
MIA PaCa-2 [19]
  Activity: 49%
[20]
  t1/2: 60 min
Panc02 [21]
  IC50: 3.7 µM
HCT-116 [22]
  Activity: 2.87%
[23]
  half-life: 366 min
[24]
  Activity: Non-Toxic
Panc02 [25]
  Activity: Active
MIA PaCa-2 [26]
  Activity: 13.89%
MIA PaCa-2 [27]
  Activity: 30.8%
MIA PaCa-2 [28]
  Activity: 40%
HCT-116 [29]
  Activity: 16.72%
HCT-116 [30]
  Activity: 20.26%
HCT-116 [31]
  viability at 10 µM: 32.9%
[32]
  IC50 at 72 h: 8 µM
PANC-1
  Activity: Active
MIA PaCa-2 [33]
  Activity: Active
HCT-116 [34]
  Activity: 47.98%
